Experimental data from the supplement of paper PMC11061612.

Assays:
Experiment in all cases: combination Emax (second highest fraction inhibited in the dose matrix, 72 h); higher = more inhibition; extreme values may be limits of the assay
[1] = system: WM793B (Melanoma)
Procedure, shortened: (§1)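 Cell lines grown in DMEM/F12 or RPMI with 10% FBS were plated in 1536-well plates and held 24 hours at 37°C, 5% CO2 before 72 hours of exposure to two-drug dose matrices, with DMSO typically at 0.2%. CellTiter-Glo 2.0 luminescence gave viability, which was converted to inhibition. Vehicle wells were set to 0 and blank wells to 1. Combination Emax is the second-highest inhibition in the matrix, and Bliss excess is the observed combination effect minus the expected EA + EB − EA·EB, where EA and EB are the single-agent effects.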

[2] = system: HCT-15 (Colorectal Carcinoma)
Procedure, shortened: as §1

[3] = system: L-1236 (Hodgkin's Lymphoma)
Procedure, shortened: as §1

[4] = system: SF539 (Glioblastoma)
Procedure, shortened: as §1

[5] = system: NCI-H23 (Lung Adenocarcinoma)
Procedure, shortened: as §1

[6] = system: COLO-680N (Esophageal Squamous Cell Carcinoma)
Procedure, shortened: as §1

SMILES | combination Emax [1] | combination Emax [2] | combination Emax [3] | combination Emax [4] | combination Emax [5] | combination Emax [6]
CN(C)CCCOc1ccc(-c2ccc3ncc4c(c3c2)n(C2CCOCC2)c(=O)n4C)cn1 [AZD0156] + C[C@@H]1COCCN1C2=NC(=NC(=C2)C3(CC3)[S@](=N)(=O)C)C4=C5C=CNC5=NC=C4 [AZD6738] (first compound max 1 µM, 7x7, partner max 10 µM) | 0.891 | 0.915 | 0.634 | 0.929 | 0.786 | 0.267
CC(=O)Nc1cccc(-n2c(=O)n(C3CC3)c(=O)c3c(Nc4ccc(I)cc4F)n(C)c(=O)c(C)c32)c1 [Trametinib] + Cc1nc(-c2cn3c(n2)-c2ccc(-c4cnn(C(C)(C)C(N)=O)c4)cc2OCC3)n(C(C)C)n1 [Taselisib] (first compound max 1 µM, 7x7, partner max 10 µM) | 0.855 | 0.756 | 0.513 | 0.989 | 0.686 | 0.501
COc1cccc(OCCCN)c1-c1cc(Nc2cnc(C#N)cn2)n[nH]1 [Prexasertib] + O=C(c1cc(Cc2n[nH]c(=O)c3ccccc23)ccc1F)N1CCN(C(=O)C2CC2)CC1 [Olaparib] (first compound max 1 µM, 7x7, partner max 10 µM) | 0.873 | 0.883 | 0.831 | 1 | 0.879 | 0.342
Cc1cc2ncnn2cc1Nc1ncc2c(n1)n(C1CCOCC1)c(=O)n2C [AZD7648] + CN(C)CCCOc1ccc(-c2ccc3ncc4c(c3c2)n(C2CCOCC2)c(=O)n4C)cn1 [AZD0156] (first compound max 10 µM, 7x7, partner max 1 µM) | 0.361 | 0.267 | 0.306 | 0.352 | 0.103 | 0.188
CN(CCO)CC[C@H](CSc1ccccc1)Nc1ccc(S(=O)(=O)NC(=O)c2ccc(N3CCC([C@@H](O)c4ccccc4-c4ccc(Cl)cc4)CC3)cc2)cc1S(=O)(=O)C(F)(F)F [AZD4320] + Cn1cnc2c(F)c(Nc3ccc(Br)cc3Cl)c(C(=O)NOCCO)cc21 [Selumetinib] (first compound max 1 µM, 7x7, partner max 3 µM) | 0.578 | 0.284 | 0.999 | 0.346 | 0.435 | 0.246
CN(CCO)CC[C@H](CSc1ccccc1)Nc1ccc(S(=O)(=O)NC(=O)c2ccc(N3CCC([C@@H](O)c4ccccc4-c4ccc(Cl)cc4)CC3)cc2)cc1S(=O)(=O)C(F)(F)F [AZD4320] + C[C@@H]1COCCN1C2=NC(=NC(=C2)C3(CC3)[S@](=N)(=O)C)C4=C5C=CNC5=NC=C4 [AZD6738] (first compound max 1 µM, 7x7, partner max 10 µM) | 0.844 | 0.756 | 0.992 | 0.959 | 0.85 | 0.346
COc1cc2c(cc1OCCCCCOc1cc3c(cc1OC)C(=O)N1C=C(C)C[C@H]1C=N3)N=C[C@@H]1CC(C)=CN1C2=O [SG3199] + O=C(c1cc(Cc2n[nH]c(=O)c3ccccc23)ccc1F)N1CCN(C(=O)C2CC2)CC1 [Olaparib] (first compound max 0.001 µM, 7x7, partner max 10 µM) | 0.194 | 0.264 | 0.196 | 0.268 | 0.253 | 0.0893
COc1cccc(OCCCN)c1-c1cc(Nc2cnc(C#N)cn2)n[nH]1 [Prexasertib] + CN(C)CCCOc1ccc(-c2ccc3ncc4c(c3c2)n(C2CCOCC2)c(=O)n4C)cn1 [AZD0156] (first compound max 1 µM, 7x7, partner max 1 µM) | 0.903 | 0.92 | 0.792 | 0.963 | 0.882 | 0.414
Cc1cc2ncnn2cc1Nc1ncc2c(n1)n(C1CCOCC1)c(=O)n2C [AZD7648] + C=CCn1c(=O)c2cnc(Nc3ccc(N4CCN(C)CC4)cc3)nc2n1-c1cccc(C(C)(C)O)n1 [AZD1775] (first compound max 10 µM, partner max 1 µM) | 0.584 | 0.736 | 0.767 | 0.998 | 0.786 | 0.353
CCN(CCO)CCCOc1ccc2c(Nc3cc(CC(=O)Nc4cccc(F)c4)[nH]n3)ncnc2c1 [AZD2811] + O=C(c1cc(Cc2n[nH]c(=O)c3ccccc23)ccc1F)N1CCN(C(=O)C2CC2)CC1 [Olaparib] (first compound max 1 µM, 7x7, partner max 10 µM) | 0.359 | 0.12 | 0.158 | 0.502 | 0.235 | 0.196
COc1nnc2ccc(N3CCC(c4ccc(OCCN5CCN(C)C(=O)[C@H]5C)cc4)CC3)nn12 [AZD5153] + CN(CC[C@H](CSC1=CC=CC=C1)NC2=C(C=C(C=C2)S(=O)(=O)NC(=O)C3=CC=C(C=C3)N4CCC(CC4)[C@H](C5=CC=CC=C5C6=CC=C(C=C6)Cl)O)S(=O)(=O)C(F)(F)F)CCO [AZD4320] (first compound max 1 µM, 7x7, partner max 1 µM) | 0.508 | 0.81 |  |  | 0.766 | 
Cc1c2c(nn1C)CSCc1cc(n(C)n1)CSc1cc(c3ccccc3c1)OCCCc1c(C(=O)O)n(C)c3c-2c(Cl)ccc13 [AZD5991] + Cn1cnc2c(F)c(Nc3ccc(Br)cc3Cl)c(C(=O)NOCCO)cc21 [Selumetinib] (first compound max 1 µM, 7x7, partner max 3 µM) | 0.454 | 0.301 | 0.297 | 0.427 | 0.934 | 0.236
CN(C)CCCOc1ccc(-c2ccc3ncc4c(c3c2)n(C2CCOCC2)c(=O)n4C)cn1 [AZD0156] + C=CCn1c(=O)c2cnc(Nc3ccc(N4CCN(C)CC4)cc3)nc2n1-c1cccc(C(C)(C)O)n1 [AZD1775] (first compound max 1 µM, partner max 1 µM) | 0.452 | 0.726 | 0.755 | 1 | 0.815 | 0.196
CC1(C)CCC(CN2CCN(c3ccc(C(=O)NS(=O)(=O)c4ccc(NCC5CCOCC5)c([N+](=O)[O-])c4)c(Oc4cnc5[nH]ccc5c4)c3)CC2)=C(c2ccc(Cl)cc2)C1 [Venetoclax] + C1CN(CCC1(C(=O)N[C@@H](CCO)C2=CC=C(C=C2)Cl)N)C3=NC=NC4=C3C=CN4 [Capivasertib] (first compound max 1 µM, 7x7, partner max 3 µM) | 0.295 | 0.254 | 0.644 | 0.551 | 0.119 | 0.0815
CC1(C)CCC(CN2CCN(c3ccc(C(=O)NS(=O)(=O)c4ccc(NCC5CCOCC5)c([N+](=O)[O-])c4)c(Oc4cnc5[nH]ccc5c4)c3)CC2)=C(c2ccc(Cl)cc2)C1 [Venetoclax] + COc1cc(Nc2ncc3c(n2)-c2ccc(Cl)cc2C(c2c(F)cccc2OC)=NC3)ccc1C(=O)O [Alisertib] (first compound max 1 µM, 7x7, partner max 10 µM) | 0.383 | 0.537 | 0.678 | 0.454 | 0.464 | 0.318
Cc1cc2ncnn2cc1Nc1ncc2c(n1)n(C1CCOCC1)c(=O)n2C [AZD7648] + O=C(c1cc(Cc2n[nH]c(=O)c3ccccc23)ccc1F)N1CCN(C(=O)C2CC2)CC1 [Olaparib] (first compound max 10 µM, 7x7, partner max 10 µM) | 0.341 | 0.501 | 0.238 | 0.406 | 0.213 | 0.101
COc1cccc(OCCCN)c1-c1cc(Nc2cnc(C#N)cn2)n[nH]1 [Prexasertib] + CCc1c2c(nc3ccc(O)cc13)-c1cc3c(c(=O)n1C2)COC(=O)[C@]3(O)CC [SN-38] (first compound max 1 µM, 7x7, partner max 0.3 µM) | 0.896 | 0.993 | 0.883 | 1 | 0.948 | 0.685
C[C@@H]1COCCN1c1cc(C2([S@](C)(=N)=O)CC2)nc(-c2ccnc3[nH]ccc23)n1 [AZD6738] + O=C(c1cc(Cc2n[nH]c(=O)c3ccccc23)ccc1F)N1CCN(C(=O)C2CC2)CC1 [Olaparib] (first compound max 10 µM, 7x7, partner max 10 µM) | 0.822 | 0.832 | 0.583 | 0.935 | 0.753 | 0.392
Cc1cc2ncnn2cc1Nc1ncc2c(n1)n(C1CCOCC1)c(=O)n2C [AZD7648] + C[C@@H]1COCCN1C2=NC(=NC(=C2)C3(CC3)[S@](=N)(=O)C)C4=C5C=CNC5=NC=C4 [AZD6738] (first compound max 10 µM, 7x7, partner max 10 µM) | 0.818 | 0.835 | 0.689 | 0.85 | 0.603 | 0.265
COc1cccc(OCCCN)c1-c1cc(Nc2cnc(C#N)cn2)n[nH]1 [Prexasertib] + C=CCn1c(=O)c2cnc(Nc3ccc(N4CCN(C)CC4)cc3)nc2n1-c1cccc(C(C)(C)O)n1 [AZD1775] (first compound max 1 µM, partner max 1 µM) | 0.938 | 0.972 | 0.786 | 1 | 0.918 | 0.505
CC1(C)CCC(CN2CCN(c3ccc(C(=O)NS(=O)(=O)c4ccc(NCC5CCOCC5)c([N+](=O)[O-])c4)c(Oc4cnc5[nH]ccc5c4)c3)CC2)=C(c2ccc(Cl)cc2)C1 [Venetoclax] + C[C@@H](Nc1cc(F)cc(F)c1)c1cc(C(=O)N(C)C)cc2c(=O)cc(N3CCOCC3)oc12 [AZD8186] (first compound max 1 µM, 7x7, partner max 3 µM) | 0.36 | 0.138 | 0.665 | 0.287 | 0.148 | 0.111
CCc1c2c(nc3ccc(O)cc13)-c1cc3c(c(=O)n1C2)COC(=O)[C@]3(O)CC [SN-38] + O=C(c1cc(Cc2n[nH]c(=O)c3ccccc23)ccc1F)N1CCN(C(=O)C2CC2)CC1 [Olaparib] (first compound max 0.3 µM, 7x7, partner max 10 µM) |  | 0.852 | 0.87 | 0.99 |  | 0.386
C[C@@H](c1ccc2nccn2c1)n1nnc2ncc(-c3cnn(C)c3)nc21 [Savolitinib] + CN(CC[C@H](CSC1=CC=CC=C1)NC2=C(C=C(C=C2)S(=O)(=O)NC(=O)C3=CC=C(C=C3)N4CCC(CC4)[C@H](C5=CC=CC=C5C6=CC=C(C=C6)Cl)O)S(=O)(=O)C(F)(F)F)CCO [AZD4320] (first compound max 1 µM, 7x7, partner max 1 µM) | 0.137 | 0.132 |  |  | 0.316 | 
